Measured values published in US20250188033A1, “INHIBITOR OF REPLICATION PROTEIN A1 OF TRYPANOSOMA BRUCEI AND METHOD OF USE THEREOF” (Research Foundation of the City University of New York, published 2025).

Test system: Trypanosoma brucei
Experiment: ALAMARBLUE cell viability / growth assay of T. brucei cells
Format: cell-based
Conditions: T. brucei, 72 hours, normalized to DMSO control
Procedure: To determine cell growth rate, WT and two TbRPA1 RNAi KD strains (KD1 and KD2) were seeded at a density of 1×10^5 cells/ml and cultured with or without tetracycline for the induction of RNAi. Cells were counted every 12 hours for 2 days. To determine the viability of TbRPA1-depleted cells, ALAMARBLUE® assay (Thermo Fisher, an established colorimetric technique that detects metabolically active cells) was used. Cells from each time point were incubated with ALAMARBLUE® dye for 4-6 hours and percentage of live cells was determined by measuring resorufin converted from resazurin by reducing environment of live cells. Synergy H1 microplate reader (BioTek) was used with 560/590 nm (excitation/emission) filter settings and Relative Fluorescence Unit (RFU) values were obtained. The percentage of viable cells were calculated from the RFU values.
The initial assessment of JC-229's inhibitory effect on T. brucei cell growth was performed at 50 μM concentration. Trypanosome cells were seeded at 1×10^3 cells/ml density in 180 μl in a 96-well culture plate in triplicate. These cells were incubated with 50 μM JC-229 for 24, 48, and 72 hours. DMSO was used as a vehicle control at 0.0075%. JC-229-treated culture and control cultures were analyzed with the ALAMARBLUE® dye as described above.
To obtain the EC50 value of JC-229, T. brucei cells were seeded at 1×10^3 cells/ml density in 180 μl in a 96-well culture plate in triplicate. These cells were incubated for 72 hours with increasing concentrations of JC-229, (0.5 μM to 50 μM) and cell viability was determined using the ALAMARBLUE® dye as described above.
Trypanosoma brucei cytotoxicity of JC-229 and analogs were measured using ALAMARBLUE® assay (Rampersad, S. N. Multiple applications of ALAMARBLUE® as an indicator of metabolic function and cellular health in cell viability bioassays. Sensors (Basel) 12, 12347-12360 (2012). Trypanosome cells were seeded at 1×10^3 cells/ml density in 180 μl in a 96-well culture plate in triplicate. These cells were incubated with indicated concentration of JC compounds for 72 hours. DMSO was used as a vehicle control at 0.0075%. JC compound-treated cultures were then incubated with ALAMARBLUE® dye for 4-6 hours and percentage of live cells was determined using Synergy H1 microplate reader (BioTek) with 560/590 nm (excitation/emission) filter settings and Relative Fluorescence Unit (RFU) values were obtained. The percentage of viable cells were calculated from the RFU values by normalizing to DMSO treated control. In one embodiment, the inhibitor is characterized in that it provides at least 50%, at least 80% or at least 90% inhibition at a concentration of 5 μM when tested in accordance with the above conditions.

With `Cc1ccc(C(=O)Nc2ccc(Cl)c(Cl)c2)cc1S(=O)(=O)NNc1ccccc1` [JC-868] the “% Inhibition @2 μM” value was 1% and the “% Inhibition @10 μM” value was 20%.

With `Cc1ccc(C(=O)Nc2ccc(Cl)c(Cl)c2)cc1S(=O)(=O)C1CCC(N)CC1` (stereo not shown) [JC-925] the “% Inhibition @2 μM” value was −8% and the “% Inhibition @10 μM” value was 17%.

For `Cc1ccc(C(=O)Nc2ccc(Cl)c(Cl)c2)cc1S(=O)(=O)NCCOCCO` [JC-890], the “% Inhibition @2 μM” value was 4% and the “% Inhibition @10 μM” value was 37%.

With `Cc1ccc(C(=O)Nc2ccc(Cl)c(Cl)c2)cc1S(=O)(=O)C1CCCNC1.O=C(O)C(F)(F)F` (stereo not shown) [JC-951] the “% Inhibition @2 μM” value was 29% and the “% Inhibition @5 μM” value was 100%.

`Cc1ccc(C(=O)Nc2ccc(Cl)c(Cl)c2)cc1S(=O)(=O)C1CCC(NC(=O)c2ccccc2)CC1` (stereo not shown) [JC-927] was tested, and the “% Inhibition @2 μM” value was 0%, the “% Inhibition @5 μM” value was 42.4% and the “% Inhibition @10 μM” value was 100%.

`Cc1ccc(C(=O)Nc2ccc(Cl)c(Cl)c2)cc1S(=O)(=O)NCCCNC(=S)Nc1ccc(F)cc1` [JC-1015] was tested, and the “% Inhibition @2 μM” value was 11% and the “% Inhibition @5 μM” value was 100%.

In the case of `Cc1ccc(C(=O)Nc2ccc(Cl)c(Cl)c2)cc1S(=O)(=O)N1CCC(NS(=O)(=O)c2ccc(Br)cc2)CC1` [JC-1014], the “% Inhibition @2 μM” value is reported as 100% and the “% Inhibition @5 μM” value is reported as 100%.

With `Cc1ccc(C(=O)Nc2ccc(Cl)c(Cl)c2)cc1S(=O)(=O)NC(Cc1ccccc1)C(N)=O` (stereo not shown) [JC-870] the “% Inhibition @2 μM” value was −34% and the “% Inhibition @10 μM” value was 49%.

`Cc1ccc(C(=O)Nc2ccc(Cl)c(Cl)c2)cc1S(=O)(=O)NCCc1ccccc1` [JC-854] was tested, and the “% Inhibition @2 μM” value was −27% and the “% Inhibition @10 μM” value was 14%.

In the case of `Cc1ccc(C(=O)Nc2ccc(Cl)c(Cl)c2)cc1S(=O)(=O)N1CCCC(NC(=O)c2ccccc2)C1` (stereo not shown) [JC-931], the “% Inhibition @2 μM” value is reported as 3%, the “% Inhibition @5 μM” value is reported as 98.5% and the “% Inhibition @10 μM” value is reported as 100%.

In the case of `Cc1ccc(C(=O)Nc2ccc(Cl)c(Cl)c2)cc1S(=O)(=O)C1CCC(NC(=O)Cc2ccccc2)CC1` (stereo not shown) [JC-926], the “% Inhibition @2 μM” value is reported as −8%, the “% Inhibition @5 μM” value is reported as 28.9% and the “% Inhibition @10 μM” value is reported as 100%.

With `Cc1ccc(C(=O)Nc2ccc(Cl)c(Cl)c2)cc1S(=O)(=O)N1CCC(N)CC1.O=C(O)C(F)(F)F` [JC-906] the “% Inhibition @2 μM” value was 23%, the “% Inhibition @5 μM” value was 100% and the “% Inhibition @10 μM” value was 100%.

With `Cc1ccc(C(=O)Nc2ccc(Cl)c(Cl)c2)cc1S(=O)(=O)NCCN.O=C(O)C(F)(F)F` [JC-918] the “% Inhibition @2 μM” value was −20% and the “% Inhibition @10 μM” value was 56%.

In the case of `Cc1ccc(C(=O)Nc2ccc(Cl)c(Cl)c2)cc1S(=O)(=O)N1CCC(NS(=O)(=O)c2ccc(COc3ccccc3)cc2)CC1` [JC-1013], the “% Inhibition @2 μM” value is reported as 13% and the “% Inhibition @5 μM” value is reported as −9%.

In the case of `Cc1ccc(C(=O)Nc2ccc(Cl)c(Cl)c2)cc1S(=O)(=O)NCCNC(=S)Nc1ccc(Cl)c(Cl)c1` [JC-1002], the “% Inhibition @2 μM” value is reported as 34% and the “% Inhibition @5 μM” value is reported as 100%.

`Cc1ccc(C(=O)Nc2ccc(Cl)c(Cl)c2)cc1S(=O)(=O)N1CCCC(N)C1.O=C(O)C(F)(F)F` (stereo not shown) [JC-929] was tested, and the “% Inhibition @2 μM” value was 5%, the “% Inhibition @5 μM” value was 99.7% and the “% Inhibition @10 μM” value was 100%.

For `Cc1ccc(C(=O)Nc2ccc(Cl)c(Cl)c2)cc1S(=O)(=O)NCCNC(=O)Cc1ccccc1` [JC-953], the “% Inhibition @2 μM” value was −34% and the “% Inhibition @5 μM” value was 32%.

With `Cc1ccc(C(=O)N2CCOCC2)cc1S(=O)(=O)Nc1ccc(Cl)c(Cl)c1` [JC-867] the “% Inhibition @2 μM” value was −14% and the “% Inhibition @10 μM” value was 31%.

With `Cc1ccc(C(=O)Nc2ccc(Cl)c(Cl)c2)cc1S(=O)(=O)n1c(CN)nc2ccccc21.O=C(O)C(F)(F)F` [JC-904] the “% Inhibition @2 μM” value was 14% and the “% Inhibition @10 μM” value was 2%.

In the case of `Cc1ccc(C(=O)NCCc2ccccc2)cc1S(=O)(=O)Nc1ccc(Cl)c(Cl)c1` [JC-859], the “% Inhibition @2 μM” value is reported as 13% and the “% Inhibition @10 μM” value is reported as 9%.

With `Cc1ccc(C(=O)Nc2ccc(Cl)c(Cl)c2)cc1S(=O)(=O)N1CCCC(N)C1.O=C(O)C(F)(F)F` (stereo not shown) [JC-959] the “% Inhibition @2 μM” value was 64% and the “% Inhibition @5 μM” value was 100%.

`Cc1ccc(C(=O)Nc2ccc(Cl)c(Cl)c2)cc1S(=O)(=O)N1CCC(NC(=O)CCc2ccccc2)CC1` [JC-968] was tested, and the “% Inhibition @2 μM” value was 1% and the “% Inhibition @5 μM” value was 5%.

With `CC(=O)NCCNS(=O)(=O)c1cc(C(=O)Nc2ccc(Cl)c(Cl)c2)ccc1C` [JC-919] the “% Inhibition @2 μM” value was −10% and the “% Inhibition @10 μM” value was 18%.

With `COc1ccc(NC(=S)NCCNS(=O)(=O)c2cc(C(=O)Nc3ccc(Cl)c(Cl)c3)ccc2C)cc1` [JC-999] the “% Inhibition @2 μM” value was −7% and the “% Inhibition @5 μM” value was −6%.

With `Cc1ccc(C(=O)Nc2ccc(Cl)c(Cl)c2)cc1S(=O)(=O)N1CCC(NC(=S)Nc2cccc(C(F)(F)F)c2)CC1` [JC-1017] the “% Inhibition @2 μM” value was 100% and the “% Inhibition @5 μM” value was 100%.

For `Cc1ccc(C(=O)Nc2ccc(Cl)c(Cl)c2)cc1S(=O)(=O)N1CCCC(NC(=S)Nc2cccc(C(F)(F)F)c2)C1` (stereo not shown) [JC-1005], the “% Inhibition @2 μM” value was 100% and the “% Inhibition @5 μM” value was 100%.

With `Cc1ccc(C(=O)Nc2ccc(Cl)c(Cl)c2)cc1S(=O)(=O)C1CCCC(N)C1` (stereo not shown) [JC-955] the “% Inhibition @2 μM” value was 25% and the “% Inhibition @5 μM” value was 100%.

With `Cc1ccc(C(=O)Nc2ccc(Cl)c(Cl)c2)cc1S(=O)(=O)N1CCC(NC(=O)c2ccccc2)CC1` [JC-966] the “% Inhibition @2 μM” value was 13% and the “% Inhibition @5 μM” value was 0%.

In the case of `Cc1ccc(C(=O)Nc2nc3ccccc3[nH]2)cc1S(=O)(=O)Nc1ccc(Cl)c(Cl)c1` [JC-865], the “% Inhibition @2 μM” value is reported as −1% and the “% Inhibition @10 μM” value is reported as 55%.

With `Cc1ccc(C(=O)Nc2ccc(Cl)c(Cl)c2)cc1S(=O)(=O)NCCCNC(=O)OC(C)(C)C` [JC-932] the “% Inhibition @2 μM” value was 7% and the “% Inhibition @10 μM” value was 73%.

In the case of `Cc1ccc2c(NS(=O)(=O)c3cc(C(=O)Nc4ccc(Cl)c(Cl)c4)ccc3C)cccc2n1` [JC-913], the “% Inhibition @2 μM” value is reported as 2% and the “% Inhibition @10 μM” value is reported as 6%.

With `Cc1ccc(C(=O)Nc2ccc(Cl)c(Cl)c2)cc1S(=O)(=O)NC1CC(NC(=O)OC(C)(C)C)C1` (stereo not shown) [JC-956] the “% Inhibition @2 μM” value was −32% and the “% Inhibition @5 μM” value was 19%.

In the case of `Cc1ccc(C(=O)Nc2ccc(Cl)c(Cl)c2)cc1S(=O)(=O)NCc1nc2ccccc2[nH]1.O=C(O)C(F)(F)F` [JC-905], the “% Inhibition @2 μM” value is reported as 8% and the “% Inhibition @10 μM” value is reported as 10%.

For `Cc1ccc(C(=O)Nc2ccc(Cl)c(Cl)c2)cc1S(=O)(=O)N1CCC(NC(=O)Cc2ccccc2)CC1` [JC-967], the “% Inhibition @2 μM” value was 15% and the “% Inhibition @5 μM” value was −24%.
